Assay results taken from ChEMBL document CHEMBL1821660, “Synthesis and biological activity of a novel class nicotinic acetylcholine receptors (nAChRs) ligands structurally related to anatoxin-a” (Bioorg Med Chem Lett, 2011).
pIC50: −log10 of the molar value.

Experiments:
[1] = molecular target: Neuronal acetylcholine receptor; alpha3/beta4 (Homo sapiens, UniProt P30926+P32297); assay: Displacement of [3H]-epibatidine from alpha3beta4 nAChR expressed in human IMR32 cells after 2 hrs by scintillation counting; format: cell-based, IMR-32
Sequence of Neuronal acetylcholine receptor; alpha3/beta4 (P30926 whole entry): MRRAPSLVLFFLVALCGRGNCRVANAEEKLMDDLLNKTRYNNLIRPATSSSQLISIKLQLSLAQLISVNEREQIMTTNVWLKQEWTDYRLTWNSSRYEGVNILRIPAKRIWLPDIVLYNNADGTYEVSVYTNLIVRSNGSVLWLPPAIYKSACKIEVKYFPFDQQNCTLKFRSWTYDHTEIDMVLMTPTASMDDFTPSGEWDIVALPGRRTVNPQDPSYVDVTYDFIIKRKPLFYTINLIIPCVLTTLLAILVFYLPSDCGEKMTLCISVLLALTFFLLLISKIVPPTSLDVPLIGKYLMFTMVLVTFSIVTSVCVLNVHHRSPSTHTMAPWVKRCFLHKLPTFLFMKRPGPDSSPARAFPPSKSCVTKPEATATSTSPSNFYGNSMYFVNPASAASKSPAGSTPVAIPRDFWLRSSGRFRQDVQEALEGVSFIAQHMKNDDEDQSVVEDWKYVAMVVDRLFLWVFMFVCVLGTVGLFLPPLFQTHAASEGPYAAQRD
Sequence of Neuronal acetylcholine receptor; alpha3/beta4 (P32297 whole entry): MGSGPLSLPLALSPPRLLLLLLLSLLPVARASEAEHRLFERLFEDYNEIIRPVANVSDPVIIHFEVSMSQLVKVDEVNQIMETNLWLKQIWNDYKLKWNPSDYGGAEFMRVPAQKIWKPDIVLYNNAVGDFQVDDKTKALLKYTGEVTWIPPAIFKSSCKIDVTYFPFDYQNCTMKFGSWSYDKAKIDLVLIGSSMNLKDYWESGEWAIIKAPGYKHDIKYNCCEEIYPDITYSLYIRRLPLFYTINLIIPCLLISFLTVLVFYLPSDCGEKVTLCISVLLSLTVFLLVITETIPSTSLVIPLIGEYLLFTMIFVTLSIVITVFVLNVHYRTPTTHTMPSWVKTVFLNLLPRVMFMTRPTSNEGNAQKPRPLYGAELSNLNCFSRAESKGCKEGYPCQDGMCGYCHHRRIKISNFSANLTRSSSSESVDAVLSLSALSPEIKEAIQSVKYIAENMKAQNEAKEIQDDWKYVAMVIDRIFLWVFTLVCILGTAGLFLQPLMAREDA

[2] = molecular target: Acetylcholine receptor subunit alpha (Homo sapiens, UniProt P02708); assay: Binding affinity to alpha1 nAchR expressed in human TE671 cells; format: cell-based, TE-671
Sequence of Acetylcholine receptor subunit alpha (P02708 whole entry): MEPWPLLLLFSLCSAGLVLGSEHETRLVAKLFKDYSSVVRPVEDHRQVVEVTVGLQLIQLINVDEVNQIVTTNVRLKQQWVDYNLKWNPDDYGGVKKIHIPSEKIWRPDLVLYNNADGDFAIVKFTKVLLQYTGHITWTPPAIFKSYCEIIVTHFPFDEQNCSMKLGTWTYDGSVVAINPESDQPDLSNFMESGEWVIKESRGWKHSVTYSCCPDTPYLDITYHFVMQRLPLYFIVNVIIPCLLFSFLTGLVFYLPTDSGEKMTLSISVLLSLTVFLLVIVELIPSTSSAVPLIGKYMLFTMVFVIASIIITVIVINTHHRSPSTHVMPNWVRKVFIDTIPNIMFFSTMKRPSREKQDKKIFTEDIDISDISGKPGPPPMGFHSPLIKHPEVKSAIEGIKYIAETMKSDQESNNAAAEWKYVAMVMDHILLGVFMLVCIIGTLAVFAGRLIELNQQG

[3] = molecular target: Neuronal acetylcholine receptor subunit alpha-7 (Homo sapiens, UniProt P36544); assay: Displacement of [125I]-alpha-bungarotoxin from alpha7 nAchR expressed in rat GH4C1 cells; format: cell-based, GH4-C1
Sequence of Neuronal acetylcholine receptor subunit alpha-7 (P36544 whole entry): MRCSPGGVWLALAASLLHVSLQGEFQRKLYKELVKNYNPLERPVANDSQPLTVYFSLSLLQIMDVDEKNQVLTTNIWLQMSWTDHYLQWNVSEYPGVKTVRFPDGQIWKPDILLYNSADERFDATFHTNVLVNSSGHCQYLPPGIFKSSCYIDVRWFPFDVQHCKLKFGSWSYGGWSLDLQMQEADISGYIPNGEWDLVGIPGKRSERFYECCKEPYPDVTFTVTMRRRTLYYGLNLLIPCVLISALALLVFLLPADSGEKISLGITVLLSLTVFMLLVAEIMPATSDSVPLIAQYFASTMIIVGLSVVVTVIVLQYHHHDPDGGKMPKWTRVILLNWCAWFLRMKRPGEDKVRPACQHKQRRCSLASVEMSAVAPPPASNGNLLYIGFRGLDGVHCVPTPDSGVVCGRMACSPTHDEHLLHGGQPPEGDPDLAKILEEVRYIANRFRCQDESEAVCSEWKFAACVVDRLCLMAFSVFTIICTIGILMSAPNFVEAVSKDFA

[4] = Displacement of [3H]-cytisine from nAChR in rat brain membranes; format: cell membranes

| SMILES | pIC50 [1] | pIC50 [2] | pIC50 [3] | pIC50 [4] |
| --- | --- | --- | --- | --- |
| CCc1cc(C2=CCC[C@@H]3CC[C@H]2N3)on1 (racemic) | 5.74 | 5.38 | 5.34 | 7.91 |
| CCOC(=O)c1noc2c1[C@H]1CC[C@@H](CC2)N1 (racemic) | < 5.00 | < 5.00 | < 5.00 | < 5.00 |
| C1=C(c2cc(-c3ccccc3)no2)[C@H]2CC[C@@H](CC1)N2 (racemic) | 5.98 | 5.11 | < 5.00 | < 5.00 |
| Cc1cc([C@]2(O)CCC[C@@H]3CC[C@H]2N3)on1 (racemic) | < 5.00 | < 5.00 | < 5.00 | < 5.00 |
| CCOC(=O)c1cc(C2=CCC[C@@H]3CC[C@H]2N3)on1 (racemic) | < 5.00 | < 5.00 | < 5.00 | < 5.00 |
| CN1CCC[C@H]1c1cccnc1 [NICOTINE] |  |  |  | 8.33 |
| Cc1cc(C2=CCC[C@@H]3CC[C@H]2N3)on1 (racemic) | < 5.00 |  | < 5.00 | 8.04 |
| Cc1noc2c1[C@H]1CC[C@@H](CC2)N1 (racemic) | < 5.00 | < 5.00 | < 5.00 | < 5.00 |
| Cc1cc([C@@]2(O)CCC[C@@H]3CC[C@H]2N3)on1 (racemic) | < 5.00 | < 5.00 | < 5.00 | < 5.00 |
| CC(C)c1cc(C2=CCC[C@@H]3CC[C@H]2N3)on1 (racemic) | 5.54 | 5.26 | 4.82 | 5.68 |
